{
  "source": "paper PMC4921915",
  "about": "(Scientific Reports, 2016)",
  "biological_target": "T1, α1β3 GABAA receptor, 3α1:2β3 stoichiometry (α1 + β3, 30:1) (Homo sapiens, UniProt P14867+P28472)",
  "T1 construct": "gene GABRA1; full-length free subunits, cRNA ratio α1:β3 30:1, Xenopus laevis oocytes; heteropentamer; 'Human' printed for α1 and γ2, β3 implied by same sentence",
  "T1 sequence (P14867 28-456)": "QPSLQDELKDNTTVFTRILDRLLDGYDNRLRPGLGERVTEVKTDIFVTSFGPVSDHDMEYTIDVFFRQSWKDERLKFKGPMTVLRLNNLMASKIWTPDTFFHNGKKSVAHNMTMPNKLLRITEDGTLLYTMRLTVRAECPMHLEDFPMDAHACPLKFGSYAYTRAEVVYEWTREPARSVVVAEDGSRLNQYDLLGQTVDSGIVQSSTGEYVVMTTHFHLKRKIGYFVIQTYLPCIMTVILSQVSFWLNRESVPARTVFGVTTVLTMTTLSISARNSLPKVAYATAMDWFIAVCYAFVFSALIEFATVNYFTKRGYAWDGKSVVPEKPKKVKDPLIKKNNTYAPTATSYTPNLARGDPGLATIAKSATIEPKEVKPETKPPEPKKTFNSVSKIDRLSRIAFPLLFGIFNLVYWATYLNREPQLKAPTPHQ",
  "T1 sequence (P28472 26-473)": "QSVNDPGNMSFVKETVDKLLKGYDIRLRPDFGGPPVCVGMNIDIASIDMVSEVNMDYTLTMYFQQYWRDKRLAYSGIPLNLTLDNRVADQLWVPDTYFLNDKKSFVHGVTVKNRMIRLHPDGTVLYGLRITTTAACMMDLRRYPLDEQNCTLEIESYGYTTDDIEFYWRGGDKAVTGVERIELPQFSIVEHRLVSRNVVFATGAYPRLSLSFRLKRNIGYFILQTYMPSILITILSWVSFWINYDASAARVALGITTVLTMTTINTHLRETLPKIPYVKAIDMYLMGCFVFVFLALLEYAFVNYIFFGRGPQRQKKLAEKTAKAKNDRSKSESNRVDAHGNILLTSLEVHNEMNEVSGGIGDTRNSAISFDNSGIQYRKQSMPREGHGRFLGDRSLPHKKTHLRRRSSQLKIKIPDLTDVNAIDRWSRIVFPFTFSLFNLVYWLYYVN",
  "assay": "two-electrode voltage clamp, Xenopus oocytes",
  "format": "cell-based",
  "settings": "read-out: % inhibition at 1 μM",
  "data": [
    {"smiles": "CCOC(=O)c1ncn2c1CN(C)C(=O)c1cc(F)ccc1-2", "note": "[flumazenil, Ethyl 8-fluoro-5-methyl-6-oxo-5,6-dihydro-4H-benzo[f]imidazo[1,5-a][1,4]diazepine-3-carboxylate]", "values": [
      {"measurement": "inhibition at 1 µM", "value": 95, "unit": "%"}
    ]}
  ]
}
